Results as given in publication PMC8061941 (PLoS ONE, 2021).
Entries after “also recorded” stand apart in the source; their conditions may differ. Square brackets hold non-standard residues; d marks the D form. Ends that are not written are not given here. Peptide text beside a SMILES is read from it.

Assays:
[1] = Mass spectrometry analysis of Ringers solution from Ussing chambers during ex vivo recovery (degradation and fragment formation); assay type: in vitro ADME, pig; conditions: for Fragment detected in Ringers solution during ex vivo recovery: Ussing chambers with ischemia-injured jejunum in presence of parent peptide (LA or A6), MS analysis, N = 4; for half-life: pig, tissue, pH 7.4, Ussing chamber Ringers solution, ex vivo recovery 240 minutes, LC-MS/MS, n = 4, read-out: Half-life in ischemic injured jejunum tissue
From the text: After 45-minutes of ischemia, the pigs were euthanized, and intestinal segments were collected. Non-ischemic control tissue was also collected at this time. Following tissue collection, the seromuscular layer was stripped from the mucosa while the tissue was bathed in oxygenated (95% O2, 5% CO2) Ringer’s solution (in mmol/L: 154 Na^+, 6.3 K^+, 137 Cl^-, and 24 HCO3^-; pH 7.4). The mucosa was subsequently mounted in 1.1-cm^2 aperture Ussing chambers, as described in previous studies. Tissues were bathed on both the mucosal and serosal sides with 10mL Ringer’s solution. The mucosal bathing solution contained 10mM mannitol while the serosal side was osmotically balanced with 10mM glucose. Bathing solutions were oxygenated (95% O2, 5% CO2) and circulated in water-jacketed reservoirs. The spontaneous potential difference (PD) was measured using Ringer-agar bridges connected to calomel electrodes, and the PD was short-circuited through Ag-AgCl electrodes using a voltage clamp that was corrected for fluid resistance. TER (Ω·cm^2) was calculated from the spontaneous PD and short-circuit current (Isc). If the spontaneous PD was between -1.0 and 1.0 mV, tissues were current clamped at ± 100 μA for 5-seconds, and the PD was recorded. Isc and PD were recorded at 15-minute intervals over a 4-hour experiment. After tissues were mounted on Ussing chambers, all tissues were allowed to acclimate for a period of 30-minutes to establish stable baseline measurements, after which experimental, single-dose treatments of LA, LA fragments (F1, F2, or F3) with or without LA, A6, or A6 with or without A6 fragments (A6F1 or A6F2) were added to the apical chamber. For the microdosing regimen of LA, multiple doses at various concentrations of LA were added initially after the 30-minute acclimation period and every 45-minutes following this initial dose. Tissues were monitored by measuring transepithelial resistance (TER) for 240 minutes. Samples of Ringers solution were collected at select timepoints and quenched with 5% trifluoroacetic acid (TFA) solution (in 80% acetonitrile (ACN): 20% DI water). […] Standardization of ischemic injury severity between intestinal loops was standardized using a similar method as previously described in another intestinal mucosal injury model. First, T = 0 TER values from separate studies utilizing juvenile porcine intestinal ischemic tissue across three years were averaged (24 Ω·cm^2), and the standard deviation of this dataset was calculated (11 Ω·cm^2). Tissues with a T = 0 TER value exceeding one standard deviation of the mean (i.e., < 13 or > 35 Ω·cm^2) were excluded from experiments and data analysis.

aminopeptidase M = biological target: T1, aminopeptidase M (Sus scrofa, UniProt P15145); conditions: LA 0.2 mg/mL in SIF without pancreatin pH 6.5, 10 μM MgCl2, AM 0.66 unit/mL (porcine kidney), 37°C; UPLC-MS/MS; two separate runs
T1 sequence (P15145 1-963): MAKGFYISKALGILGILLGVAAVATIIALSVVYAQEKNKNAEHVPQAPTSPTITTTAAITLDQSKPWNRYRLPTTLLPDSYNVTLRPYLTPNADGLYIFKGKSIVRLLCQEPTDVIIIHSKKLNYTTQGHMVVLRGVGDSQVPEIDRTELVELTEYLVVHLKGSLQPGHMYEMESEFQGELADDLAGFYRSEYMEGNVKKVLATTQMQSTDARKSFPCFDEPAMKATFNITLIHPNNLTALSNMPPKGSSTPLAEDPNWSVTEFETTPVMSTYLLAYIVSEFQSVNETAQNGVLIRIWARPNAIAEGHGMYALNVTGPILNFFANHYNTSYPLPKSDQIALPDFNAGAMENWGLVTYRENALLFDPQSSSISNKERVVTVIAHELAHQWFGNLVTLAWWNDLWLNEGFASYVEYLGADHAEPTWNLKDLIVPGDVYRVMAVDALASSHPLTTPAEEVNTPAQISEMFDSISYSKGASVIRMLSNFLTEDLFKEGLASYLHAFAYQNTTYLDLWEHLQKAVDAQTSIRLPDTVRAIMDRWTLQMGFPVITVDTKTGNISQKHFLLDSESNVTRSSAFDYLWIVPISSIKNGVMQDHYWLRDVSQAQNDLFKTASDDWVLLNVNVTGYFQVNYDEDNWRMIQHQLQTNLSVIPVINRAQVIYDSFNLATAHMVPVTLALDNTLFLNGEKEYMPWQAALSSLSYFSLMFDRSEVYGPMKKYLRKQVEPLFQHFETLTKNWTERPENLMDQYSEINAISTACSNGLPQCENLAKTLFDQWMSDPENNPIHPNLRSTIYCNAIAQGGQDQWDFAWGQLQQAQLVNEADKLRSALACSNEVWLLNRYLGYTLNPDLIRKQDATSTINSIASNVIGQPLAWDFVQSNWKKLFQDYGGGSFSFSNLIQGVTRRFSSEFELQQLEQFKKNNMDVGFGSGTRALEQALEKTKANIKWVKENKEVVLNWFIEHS
Description: Aminopeptidase M (AM) degradation of LA in vitro was carried out as follows. LA solution (0.2 mg/mL) in simulated intestinal fluid (SIF) (without Pancreatin), USP XXII Formulation: Ricca Chemical) pH 6.5 containing MgCl2 (10 μM; catalyst support) was combined with AM (porcine kidney: Sigma) solution (final AM concentration is 0.66 unit/mL) in a vial. The combined mixture was incubated at 37°C in a shaker water bath, and samples for UPLC-MS analysis were collected at various timepoints quenched with 5% TFA solution (in 80% ACN: 20% DI water). Quenched samples were centrifuged at 13000xg for 5-minutes and the resulting supernatants were stored at -80°C for future MS analysis.
A simple and sensitive liquid chromatography/tandem mass spectrometric (LC-MS/MS) method was developed for the identification and quantification of LA and its digestive fragments in the enzyme digest solution and other matrices. Samples were prepared with simple ACN and TFA in water quenching of the enzyme activity and precipitation of protein(s). The supernatant was then diluted appropriately and analyzed directly using the UPLC-MS/MS method Chromatographic separations were achieved on a C18 reversed phase column using an ACN and TFA-water gradient. The detection was performed in MS/MS mode via positive electrospray ionization (ESI+) interface.
A Waters Quattro Xevo TOD mass spectrometer equipped with an electrospray ionization source and a Waters Acquity™ UPLC BEH system (Waters, Milford, MA, USA) with a binary solvent and a sample manager was used in this study. The LC column (Waters, C18, 50×2.1 mm, 1.7 μm) was operated at 35°C and the autosampler was operated at ambient temperature. A binary mobile phase (mobile phase A and mobile phase B) with a linear solvent gradient system was used for the chromatographic separations of larazotide and its digestive fragments. Mobile phase A, 0.02% TFA in water and mobile phase B, 0.02% TFA in ACN. The UPLC-MS/MS method was qualified for the determination and identification of larazotide and the larazotide digestive fragments in the enzyme digest solution.

[2] = Ringers solution bathing ischemia-injured porcine jejunal mucosa mounted in Ussing chambers (ex vivo recovery); conditions: Yorkshire crossbred pigs, up to 240 minutes
Aminopeptidase M (AM) = assay: AM (porcine kidney: Sigma) in simulated intestinal fluid (SIF) (without Pancreatin) pH 6.5 containing MgCl2 (10 μM); conditions: 37°C, up to 180 minutes

Molecule | Fragment detected in Ringers solution during ex vivo recovery [1] | Degradation by aminopeptidase M and presence of fragments (aminopeptidase M) | further results
GVLVQPG [F1] | are formed | found in all samples collected during the run | –
CC(C)C[C@@H](NC(=O)[C@H](NC(=O)CNC(=O)CN)C(C)C)C(=O)N[C@@H](C(=O)N[C@H](CCC(N)=O)C(=O)N1CCC[C@@H]1C(=O)NCC(=O)O)C(C)C [A6] (H-GG[dV][dL][dV][dQ][dP]G-OH) | – | – | Stability to brush-border enzyme degradation compared with LA ([1]; ex vivo stability data, Ussing chamber): significantly more stable; half-life [1]: 78 min
CC(C)C[C@@H](NC(=O)[C@H](NC(=O)CN)C(C)C)C(=O)N[C@@H](C(=O)N[C@H](CCC(N)=O)C(=O)N1CCC[C@@H]1C(=O)NCC(=O)O)C(C)C [A6F1] (H-G[dV][dL][dV][dQ][dP]G-OH) | predominant fragment formed | – | –
H-GGVLVQPG-OH | – | – | cleaved bond [2]: Gly-Val; also recorded: Pro-Gly, major; cleaved bond (Aminopeptidase M (AM)): Gly-Val
VLVQPG [F2] | are formed | not being detected after 90 minutes | –
GGVLVQP [F3] | highest concentration out of all four fragments | – | –
CC(C)C[C@@H](NC(=O)[C@H](N)C(C)C)C(=O)N[C@@H](C(=O)N[C@H](CCC(N)=O)C(=O)N1CCC[C@@H]1C(=O)O)C(C)C [A6F4] (H-[dV][dL][dV][dQ][dP]-OH) | formation | – | –
VLVQP [F4] | detected | – | –
GGVLVQPG [LA, Larazotide acetate] | – | fragmented throughout the entirety of the experiment | half-life [1]: 35 min
CC(C)C[C@@H](NC(=O)[C@H](N)C(C)C)C(=O)N[C@@H](C(=O)N[C@H](CCC(N)=O)C(=O)N1CCC[C@@H]1C(=O)NCC(=O)O)C(C)C [A6F2] (H-[dV][dL][dV][dQ][dP]G-OH) | formation | – | –
